For the assay, the target named is T1, P2X7 receptor (Homo sapiens, UniProt Q99572).
T1 construct: host or cells: THP-1 cells differentiated with LPS and IFN-γ
T1 sequence (Q99572 1-595): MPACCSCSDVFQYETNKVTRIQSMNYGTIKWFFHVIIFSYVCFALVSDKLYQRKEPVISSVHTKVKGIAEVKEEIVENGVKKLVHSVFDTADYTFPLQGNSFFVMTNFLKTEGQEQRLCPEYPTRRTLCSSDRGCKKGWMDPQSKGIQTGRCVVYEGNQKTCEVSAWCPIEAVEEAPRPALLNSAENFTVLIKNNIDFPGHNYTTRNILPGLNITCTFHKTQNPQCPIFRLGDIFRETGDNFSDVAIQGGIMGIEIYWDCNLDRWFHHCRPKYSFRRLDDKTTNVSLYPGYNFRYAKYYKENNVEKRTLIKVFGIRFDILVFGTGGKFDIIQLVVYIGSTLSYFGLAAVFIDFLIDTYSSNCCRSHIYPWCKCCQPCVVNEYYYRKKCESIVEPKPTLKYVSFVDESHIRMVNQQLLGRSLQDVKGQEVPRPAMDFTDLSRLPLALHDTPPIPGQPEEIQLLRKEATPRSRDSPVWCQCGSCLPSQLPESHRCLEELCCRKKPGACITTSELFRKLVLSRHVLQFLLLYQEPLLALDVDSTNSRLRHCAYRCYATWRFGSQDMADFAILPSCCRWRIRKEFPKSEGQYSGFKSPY
As to the kind of experiment: Alternate method for IL-1β release assay (differentiated THP-1 cells, BzATP-stimulated, ELISA). The assay is classed as cell-based. Conditions: P2X7; for inhibition at 0.3 µM: 0.3 μM compound (asterisk symbols), read-out: IL-1β % inhib @ 0.3 μM; for inhibition at 0.1 µM: 0.1 μM compound (plus symbols), read-out: IL-1β % inhib @ 0.1 μM. As to the method:
Alternate Method for IL-1β Release Assay
THP-1 cells (ATCC Cat #285-IF-100) are plated in 96 well plates at a concentration of 200,000 cells per well and allowed to differentiate in RPMI-1640 media (ATCC Cat #30-2001) containing 10% FBS, 100 IU/mL penicillin, 100 ug/mL streptomycin, 100 ng/mL LPS and 100 ng/mL IFN-γ for 16 hours. Following differentiation, the cells are treated for an additional 2 hours in RPMI-1640 media containing 100 IU/mL penicillin, 100 ug/mL streptomycin and fresh LPS at 100 ng/mL. The cells are then pretreated for 30 minutes with the compound of interest at the appropriate concentration in RPMI media containing 100 IU/mL penicillin, 100 ug/mL streptomycin. Following the pretreatment 2′,3′-O-(4-benzoylbenzoyl)-adenosine 5′-triphosphate (Sigma Aldrich Cat# B6396) is added to a final concentration of 250 uM and the cells incubated for an additional 45 minutes. 30 uL of cell supernatant is then collected and IL-1β levels determined via ELISA (R&D systems Cat. # HSLB50) according to manufacturers recommendations using the Tecan Safire plate reader. Background adjusted IL-1β levels of drug treated and non-treated cells are used to calculate the percent inhibition.
(In general: In an ELISA, binding on a coated surface is turned into a signal by an enzyme label.)

As to `O=S(=O)(c1ccccc1OC(F)(F)F)N1CCc2c(ncnc2NCC23CC4CC(CC(C4)C2)C3)C1` [Compound 55], the inhibition at 0.3 µM is 0 to 25%.
Same read-out and setting: for `Cc1ccccc1S(=O)(=O)N1CCc2c(ncnc2NCC23CC4CC(CC(C4)C2)C3)C1` [Compound 56] the value was 25 to 50%; for `O=S(=O)(c1ccc2c(c1)OCCO2)N1CCc2c(ncnc2NCC23CC4CC(CC(C4)C2)C3)C1` [Compound 57], 50 to 75%.
As to `O=S(=O)(c1ccc(C(F)(F)F)cc1)N1CCc2c(ncnc2NCC23CC4CC(CC(C4)C2)C3)C1` [Compound 58], the inhibition at 0.3 µM was in the range of 0 to 25%.
With `O=S(=O)(c1ccc(Cl)cc1F)N1CCc2c(ncnc2NCC23CC4CC(CC(C4)C2)C3)C1` [Compound 59], the inhibition at 0.3 µM was 25 to 50%.
Take `O=S(=O)(c1cc(F)ccc1F)N1CCc2c(ncnc2NCC23CC4CC(CC(C4)C2)C3)C1` [Compound 60]: the inhibition at 0.3 µM was in the range of 25 to 50%.
Same read-out and setting: under `O=S(=O)(c1cc(Cl)ccc1Cl)N1CCc2c(ncnc2NCC23CC4CC(CC(C4)C2)C3)C1` [Compound 61] stands 50 to 75%; under `O=S(=O)(c1cc(Cl)ccc1F)N1CCc2c(ncnc2NCC23CC4CC(CC(C4)C2)C3)C1` [Compound 62], 25 to 50%.
Turning to `O=S(=O)(c1c(F)cccc1F)N1CCc2c(ncnc2NCC23CC4CC(CC(C4)C2)C3)C1` [Compound 63], the inhibition at 0.3 µM was above 75%.
The same measure, in the same setting: under `Cc1ccc(S(=O)(=O)N2CCc3c(ncnc3NCC34CC5CC(CC(C5)C3)C4)C2)cc1Cl` [Compound 64] stands 25 to 50%; under `O=S(=O)(c1cc(Cl)cc(Cl)c1)N1CCc2c(ncnc2NCC23CC4CC(CC(C4)C2)C3)C1` [Compound 65], 0 to 25%.
Take `O=S(=O)(c1ccc(F)cc1F)N1CCc2c(ncnc2NCC23CC4CC(CC(C4)C2)C3)C1` [Compound 66]: the inhibition at 0.1 µM is 25 to 50%.
With `O=S(=O)(c1c(Cl)cccc1Cl)N1CCc2c(ncnc2NCC23CC4CC(CC(C4)C2)C3)C1` [Compound 67], the inhibition at 0.3 µM is above 75%.
The same measure, in the same setting: for `O=S(=O)(c1ccc(F)cc1Cl)N1CCc2c(ncnc2NCC23CC4CC(CC(C4)C2)C3)C1` [Compound 68] the value was 0 to 25%; for `Cc1ccc(F)cc1S(=O)(=O)N1CCc2c(ncnc2NCC23CC4CC(CC(C4)C2)C3)C1` [Compound 69], 0 to 25%.
In the case of `CC(C)S(=O)(=O)N1CCc2c(ncnc2NCC23CC4CC(CC(C4)C2)C3)C1` [Compound 70], the inhibition at 0.3 µM lay in the range of 50 to 75%.
Consider `COc1ccc(C)cc1S(=O)(=O)N1CCc2c(ncnc2NCC23CC4CC(CC(C4)C2)C3)C1` [Compound 71], for which the inhibition at 0.3 µM fell in the range of 25 to 50%.
The same measure, in the same setting: for `COc1ccc(OC)c(S(=O)(=O)N2CCc3c(ncnc3NCC34CC5CC(CC(C5)C3)C4)C2)c1` [Compound 72] the value was 25 to 50%; for `Cc1cc(C)cc(S(=O)(=O)N2CCc3c(ncnc3NCC34CC5CC(CC(C5)C3)C4)C2)c1` [Compound 73], 0 to 25%; for `N#Cc1ccccc1S(=O)(=O)N1CCc2c(ncnc2NCC23CC4CC(CC(C4)C2)C3)C1` [Compound 74], 25 to 50%.
For the compound `O=C(c1c(Cl)cccc1Cl)N1CCc2c(ncnc2NCC23CC4CC(CC(C4)C2)C3)C1` [Compound 75], the inhibition at 0.1 µM was above 75%.
As to `O=C(c1ccccc1)N1CCc2c(ncnc2NCC23CC4CC(CC(C4)C2)C3)C1` [Compound 77, {4-[(Adamantan-1-ylmethyl)-amino]-5,8-dihydro-6H-pyrido[3,4-d]pyrimidin-7-yl}-phenyl-methanone], the inhibition at 0.1 µM is above 75%.
Turning to `COc1ccc(CC(=O)N2CCc3c(ncnc3NCC34CC5CC(CC(C5)C3)C4)C2)cc1` [Compound 80], the inhibition at 0.3 µM is above 75%.
Still for that read-out and setting: under `O=C(Cc1ccccc1)N1CCc2c(ncnc2NCC23CC4CC(CC(C4)C2)C3)C1` [Compound 81] stands 50 to 75%; under `O=C(c1ccc(Cl)cc1)N1CCc2c(ncnc2NCC23CC4CC(CC(C4)C2)C3)C1` [Compound 82], 25 to 50%.

The values are drawn from patent US20100022531A1, “NOVEL COMPOUNDS AS P2X7 MODULATORS AND USES THEREOF” (RENOVIS, INC., priority 2005, published 2010).
